# What was measured:
# Type in all cases: in vivo
# [1] = test system: coronary ischemia-reperfusion model using dogs; test: Mortality during coronary ischemia-reperfusion in dogs; conditions: dog
# Experimental: (§1) After anesthetizing 52 adult mongrel dogs of either sex weighing ca. 10 kg by intraperitoneal administration of 50 mg/kg of sodium pentobarbital, breathing tubes were immediately intubated endotracheally and artificial ventilation was continued using a Harvard ventilator. Electrocardiogram electrodes were attached, and monitoring and recording were continued throughout the experiment. Following insertion of cannulas in the right femoral vein and right femoral artery, the cannulas were used for continuous intravenous drip of physiological saline to replenish water or administration of the test preparation, and monitoring of arterial blood pressure, respectively. After performing left thoracotomy in the fourth or fifth intercostal space, the pericardium was torn to expose the heart. Ischemia was induced by ligating the left anterior descending coronary artery immediately distal to the first diagonal branch, while reperfusion was performed by subsequently removing that ligation.
# (§2) The animals were divided into four groups. Group 1 (n=9) was subjected to ischemia for 2 hours, group 2 (n=17) was subjected to ischemia for 2 hours followed by reperfusion for 1 hour, group 3 (n=10) was subjected to ischemia for 2 hours followed by reperfusion for 1 hour plus intravenous injection of 10 mg/kg of γ-GCE just before reperfusion, and group 4 (n=16) was subjected to 2 hours of ischemia followed by 1 hour of reperfusion plus intravenous injection of 10 mg/kg of reduced glutathione (GSH, control drug) just before reperfusion.
# [2] = test system: coronary ischemia-reperfusion model using dogs; test: Arrhythmia during coronary ischemia and reperfusion (electrocardiogram); conditions: dog
# Experimental: as §1, §2
# Evaluation of arrhythmia was performed by analyzing the electrocardiogram to determine the presence of arrhythmia, or in other words, the number of ventricular premature beats, as well as the total duration of ventricular tachycardia, which was defined as more than three successive ventricular premature beats.
# [3] = test system: liver tissue mitochondria; test: Liver tissue mitochondrial function in liver ischemia-reperfusion; conditions: rat, 50 mg/kg i.v. before ischemia, FIGS. 2A and 2B
# Experimental: (§3) Male Wister rats weighing 250-300 g were fasted with free access to water 24 hours before the experiment. Seventy-two rats were divided into three groups of 24 animals each, i.e., the control group, the GSH administration group and the γ-GCE-administration group. Each rat was anesthetized by intraperitoneal administration of 40 mg/0.8 ml/kg of sodium pentobarbital, and the femoral vein was cannulated. In the GSH group and the γ-GCE group, 50 mg/kg of GSH or γ-GCE respectively were administered intravenously. Physiological saline was then infused for volume replacement in each group, as a continuous intravenous infusion at a rate of 0.8 ml/hr with an injection pump throughout the experiment. Thirty minutes after starting injection of physiological saline, the abdomon was opened by a midline incision and the liver hilus was exposed. According to the method described by Hasselgren, et al. in J. Surg. Res., Vol. 34, pp. 409-414, 1984, all vessels to the left and median lobes of the liver, more specifically, hepatic artery, portal vein and the bile duct, were clamped to produce an ischemic state for 2 hours. Since blood vessels to the remaining parts of the liver were not occluded by this method, poral stasis could be avoided which was of special relevance for circulation stability in rats. Thereafter, occlusion of all vessels was released by removing the clamp to allow reperfusion for 1 hour. The abdominal walls were closed during ischemia and reperfusion. […]
# (§4) Evaluation of ischemia-reperfusion injury was performed by measuring liver tissue (1) mitochondrial function, (2) glutathione concentration, (3) adenine nucleotides concentration, and (4) lipid peroxide concentration, as well as liver tissue derived (5) adenine nucleotides concentration in the hepatic vein immediately after starting reperfusion, and (6) liver cell enzyme activities in the blood after 1 hour of reperfusion. More specifically, the mitochondrial function in (1) was measured according to the method described by Chance, et al. in Adv. […] In addition, the quantitative determination of glutathione in (2) was performed using the same method as Experiment 1 on supernatant obtained by adding 10 vol/g of tissue weight of 2.5% (w/v) sulfosalicylic acid dihydrate aqueous solution to the liver tissue followed by homogenization and centrifugation. In addition, the quantitative determination of adenine nucleotides in (3) was performed by neutralizing the perchloric acid extract of the liver tissue with potassium hydroxide followed by removal of the precipitate and applying to an ion exchange HPLC column according to the method described by Sugino, et al. in J. Chromatogr., Vol. 361, pp. 427-431, 1986. […]
# [4] = test system: liver ischemia-reperfusion model using rats; test: Glutathione concentration in liver tissue during liver ischemia-reperfusion; conditions: rat, 50 mg/kg i.v.
# Experimental: (§5) Male Wister rats weighing 250-300 g were fasted with free access to water 24 hours before the experiment. Seventy-two rats were divided into three groups of 24 animals each, i.e., the control group, the GSH administration group and the γ-GCE-administration group. Each rat was anesthetized by intraperitoneal administration of 40 mg/0.8 ml/kg of sodium pentobarbital, and the femoral vein was cannulated. In the GSH group and the γ-GCE group, 50 mg/kg of GSH or γ-GCE respectively were administered intravenously. Physiological saline was then infused for volume replacement in each group, as a continuous intravenous infusion at a rate of 0.8 ml/hr with an injection pump throughout the experiment. Thirty minutes after starting injection of physiological saline, the abdomon was opened by a midline incision and the liver hilus was exposed. According to the method described by Hasselgren, et al. in J. Surg. Res., Vol. 34, pp. 409-414, 1984, all vessels to the left and median lobes of the liver, more specifically, hepatic artery, portal vein and the bile duct, were clamped to produce an ischemic state for 2 hours. Since blood vessels to the remaining parts of the liver were not occluded by this method, poral stasis could be avoided which was of special relevance for circulation stability in rats. Thereafter, occlusion of all vessels was released by removing the clamp to allow reperfusion for 1 hour. The abdominal walls were closed during ischemia and reperfusion.
# (§6) Using 18 rats in each group, the livers of 6 animals from each group were removed before ischemia, after 2 hours of ischemia, and after 1 hour of reperfusion, respectively. A portion of the liver from each animal was rapidly frozen in liquid nitrogen and used for measurement of glutathione,adenine nucleotides and lipid peroxide. From the remaining portion of the liver, mitochondria was immediately extracted according to the method described by Hogeboom and Schneider in the J. Biol. Chem., Vol. 172, p. 619, 1948. In other experiments, immediately after starting reperfusion, blood from the hepatic vein was collected using 6 rats from each group. These blood samples were then used to measure leaked adenine nucleotides. In addition, after 1 hour of said reperfusion, blood samples were also drawn, which were then used to measure the activity of the leaked liver cell enzymes.
# (§7) Evaluation of ischemia-reperfusion injury was performed by measuring liver tissue (1) mitochondrial function, (2) glutathione concentration, (3) adenine nucleotides concentration, and (4) lipid peroxide concentration, as well as liver tissue derived (5) adenine nucleotides concentration in the hepatic vein immediately after starting reperfusion, and (6) liver cell enzyme activities in the blood after 1 hour of reperfusion. More specifically, the mitochondrial function in (1) was measured according to the method described by Chance, et al. in Adv. Enzymol., Vol. 17, p. 65, 1956. In addition, the quantitative determination of glutathione in (2) was performed using the same method as Experiment 1 on supernatant obtained by adding 10 vol/g of tissue weight of 2.5% (w/v) sulfosalicylic acid dihydrate aqueous solution to the liver tissue followed by homogenization and centrifugation. In addition, the quantitative determination of adenine nucleotides in (3) was performed by neutralizing the perchloric acid extract of the liver tissue with potassium hydroxide followed by removal of the precipitate and applying to an ion exchange HPLC column according to the method described by Sugino, et al. in J. Chromatogr., Vol. 361, pp. 427-431, 1986. In addition, the measurement of lipid peroxide in (4) was performed according to the thiobarbiturate method described by Ohkawa, et al. in Anal. Biochem., Vol. 95, p. 351, 1979. […]
# [5] = test system: liver ischemia-reperfusion model using rats; test: Adenine nucleotides concentration in liver tissue during liver ischemia-reperfusion; conditions: rat, 50 mg/kg i.v.
# Experimental: as §5, §6, §7
# [6] = test system: liver ischemia-reperfusion model using rats; test: Liver lipid peroxide concentration (thiobarbiturate method); conditions: rat; 50 mg/kg i.v.; after 1 hour reperfusion
# Experimental: Male Wister rats weighing 250-300 g were fasted with free access to water 24 hours before the experiment. Seventy-two rats were divided into three groups of 24 animals each, i.e., the control group, the GSH administration group and the γ-GCE-administration group. Each rat was anesthetized by intraperitoneal administration of 40 mg/0.8 ml/kg of sodium pentobarbital, and the femoral vein was cannulated. In the GSH group and the γ-GCE group, 50 mg/kg of GSH or γ-GCE respectively were administered intravenously. Physiological saline was then infused for volume replacement in each group, as a continuous intravenous infusion at a rate of 0.8 ml/hr with an injection pump throughout the experiment. Thirty minutes after starting injection of physiological saline, the abdomon was opened by a midline incision and the liver hilus was exposed. […]
# Evaluation of ischemia-reperfusion injury was performed by measuring liver tissue (1) mitochondrial function, (2) glutathione concentration, (3) adenine nucleotides concentration, and (4) lipid peroxide concentration, as well as liver tissue derived (5) adenine nucleotides concentration in the hepatic vein immediately after starting reperfusion, and (6) liver cell enzyme activities in the blood after 1 hour of reperfusion. More specifically, the mitochondrial function in (1) was measured according to the method described by Chance, et al. in Adv. […]
# [7] = test system: liver ischemia-reperfusion model using rats; test: Adenine nucleotides in hepatic vein immediately after starting reperfusion; conditions: rat; 50 mg/kg i.v.
# Experimental: as §3, §4
# [8] = test system: liver ischemia-reperfusion model using rats; test: Serum AST, ALT and LDH after 1 hour of reperfusion; conditions: rat; 50 mg/kg i.v.
# Experimental: as §5, §6, §7
# [9] = 10 mg/kg i.v. just before reperfusion
# [10] = during 2 h ischemia, before the drug was given
compound,measurement,setting,value
"N[C@@H](CCC(=O)N[C@@H](CS)C(=O)NCC(=O)O)C(=O)O [GSH, reduced glutathione, reference compound]",animals died due to ventricular fibrillation during reperfusion,[1]; [9],ca. 50%
same,"Mortality rate (number of dogs that died / number of dogs in experiment), 1 hour of reperfusion",[1]; 1 hour of reperfusion after 10 mg/kg i.v. just before reperfusion,7/15
same,"Mortality rate (number of dogs that died / number of dogs in experiment), 2 hours of ischemia","[1]; 2 hours of ischemia, before the drug was given (10 mg/kg i.v. just before reperfusion)",1/16
same,"Number of Ventricular Premature Beats, 1 Hour of Reperfusion",[2]; [9],1731 ± 1574
same,"Total Duration of Ventricular Tachycardia, 1 Hour of Reperfusion",[2]; [9],983 ± 959 s
same,effect on total duration of ventricular tachycardia during reperfusion,[2]; [9],did not show such effect whatsoever
same,occurrence of arrhythmia (ventricular premature beats) during reperfusion,[2]; [9],not suppressed at all
same,"Number of Ventricular Premature Beats, 2 Hours of Ischemia",[2]; [10],42 ± 43
same,"Total Duration of Ventricular Tachycardia, 2 Hours of Ischemia",[2]; [10],1 ± 2 s
same,effect on recovery of liver mitochondrial function during reperfusion,[3]; 1 h reperfusion,did not show any protective effects whatsoever
same,effect on reduction of liver mitochondrial St. III O2 caused by ischemia,[3]; 2 h ischemia,did not show any protective effects whatsoever
same,liver glutathione concentration after reperfusion relative to the level prior to ischemia,[4],~70%
same,"Liver tissue glutathione, GSH + GSSG, after 1 hour reperfusion",[4]; after 1 hour reperfusion,3.77 ± 0.64 μmol/g of liver wet weight
same,"Liver tissue glutathione, GSH, after 1 hour reperfusion",[4]; after 1 hour reperfusion,3.40 ± 0.60 μmol/g of liver wet weight
same,"Liver tissue glutathione, GSSG, after 1 hour reperfusion",[4]; after 1 hour reperfusion,0.37 ± 0.05 μmol/g of liver wet weight
same,"Liver tissue glutathione, GSH + GSSG, after 2 hours ischemia",[4]; after 2 hours ischemia,4.40 ± 0.68 μmol/g of liver wet weight
same,"Liver tissue glutathione, GSH, after 2 hours ischemia",[4]; after 2 hours ischemia,4.35 ± 0.65 μmol/g of liver wet weight
same,"Liver tissue glutathione, GSSG, after 2 hours ischemia",[4]; after 2 hours ischemia,0.35 ± 0.04 μmol/g of liver wet weight
same,"Liver tissue glutathione, GSH + GSSG, before ischemia",[4]; before ischemia,5.29 ± 0.38 μmol/g of liver wet weight
same,"Liver tissue glutathione, GSH, before ischemia",[4]; before ischemia,4.91 ± 0.35 μmol/g of liver wet weight
same,"Liver tissue glutathione, GSSG, before ischemia",[4]; before ischemia,0.38 ± 0.06 μmol/g of liver wet weight
same,effect on restoration of liver ATP following reperfusion,[5]; 1 hour reperfusion,did not show any promotive effects on the restoration of ATP
same,"Liver tissue ADP, after 1 hour reperfusion",[5]; after 1 hour reperfusion,0.38 μmol/g wet liver weight
same,"Liver tissue AMP, after 1 hour reperfusion",[5]; after 1 hour reperfusion,0.15 μmol/g wet liver weight
same,"Liver tissue ATP + ADP + AMP, after 1 hour reperfusion",[5]; after 1 hour reperfusion,1.66 μmol/g wet liver weight
same,"Liver tissue ATP, after 1 hour reperfusion",[5]; after 1 hour reperfusion,1.13 μmol/g wet liver weight
same,"Liver tissue ADP, after 2 hours ischemia",[5]; after 2 hours ischemia,0.13 μmol/g wet liver weight
same,"Liver tissue AMP, after 2 hours ischemia",[5]; after 2 hours ischemia,0.73 μmol/g wet liver weight
same,"Liver tissue ATP + ADP + AMP, after 2 hours ischemia",[5]; after 2 hours ischemia,0.90 μmol/g wet liver weight
same,"Liver tissue ATP, after 2 hours ischemia",[5]; after 2 hours ischemia,0.04 μmol/g wet liver weight
same,"Liver tissue ADP, before ischemia",[5]; before ischemia,0.65 μmol/g wet liver weight
same,"Liver tissue AMP, before ischemia",[5]; before ischemia,0.18 μmol/g wet liver weight
same,"Liver tissue ATP + ADP + AMP, before ischemia",[5]; before ischemia,3.40 μmol/g wet liver weight
same,"Liver tissue ATP, before ischemia",[5]; before ischemia,2.57 μmol/g wet liver weight
same,Concentration of liver lipid peroxide following reperfusion,[6],9.1±2.0 nmol/mg protein
same,Adenine nucleotides concentration in hepatic vein immediately after starting reperfusion,[7],3.59 ± 1.28 μmol/L serum
same,effect on leakage of adenine nucleotides into the hepatic vein,[7],did not significantly mitigate the leakage
same,Serum ALT after 1 hour of reperfusion,[8],2337 ± 571 IU/L
same,Serum AST after 1 hour of reperfusion,[8],3914 ± 1102 IU/L
same,Serum LDH after 1 hour of reperfusion,[8],26435 ± 12191 IU/L
same,effect on leakage of liver cell enzymes into the blood following 1 hour of reperfusion,[8],did not significantly mitigate the leakage
